Results: publication PMC5743680, “Bleogens: Cactus-Derived Anti-Candida Cysteine-Rich Peptides with Three Different Precursor Arrangements” (Frontiers in Plant Science, 2017)

Assay: Heparin affinity chromatography
Format: binding
Conditions: TSKgel Heparin-5PW column, 10 mM phosphate buffer, pH 7.2
Description: Heparin binding chromatography was performed by high performance liquid chromatography (HPLC; Shimadzu, Japan). A linear gradient of mobile phase A (10 mM phosphate buffer, pH 7.2) and mobile phase B (0.75 M NaCl in 10 mM phosphate buffer, pH 7.2) was used with a TSKgel Heparin-5PW column ([…], 10 μm; Tosoh Bioscience, Japan).

Substance: SIGGIR
- binding to heparin HPLC affinity column: did not bind
